Measured values from PubChem BioAssay AID1259407 (Chemical Carcinogenesis Research Information System (CCRIS), 2018).
Active and inactive are the calls of the source. How the calls were made is not given here.

System: CCRIS mutagenicity, Ames/micronucleus/aberration tests
Test: CCRIS mutagenicity studies
[1] = Test System: AMES SALMONELLA TYPHIMURIUM, Strain/Indicator: TA98, Metabolic Activation: NONE, Method: PREINCUBATION
[2] = Test System: AMES SALMONELLA TYPHIMURIUM, Strain/Indicator: TA100, Metabolic Activation: NONE, Method: PREINCUBATION
[3] = Test System: AMES SALMONELLA TYPHIMURIUM, Strain/Indicator: TA1535, Metabolic Activation: NONE, Method: PREINCUBATION
[4] = Test System: AMES SALMONELLA TYPHIMURIUM, Strain/Indicator: TA1537, Metabolic Activation: NONE, Method: PREINCUBATION

Compound: CC(C)COC(=O)CCCCC(=O)OCC(C)C
- mutagenic call (Test System: AMES SALMONELLA TYPHIMURIUM, Strain/Indicator: TA97, Metabolic Activation: NONE, Method: STANDARD PLATE): inactive; negative
- mutagenic call (Test System: AMES SALMONELLA TYPHIMURIUM, Strain/Indicator: TA97, Metabolic Activation: S-9, Method: STANDARD PLATE): inactive; negative
- mutagenic call (Test System: AMES SALMONELLA TYPHIMURIUM, Strain/Indicator: TA98, Metabolic Activation: NONE, Method: STANDARD PLATE): inactive; negative
- mutagenic call (Test System: AMES SALMONELLA TYPHIMURIUM, Strain/Indicator: TA98, Metabolic Activation: S-9, Method: STANDARD PLATE): inactive; negative
- mutagenic call (Test System: AMES SALMONELLA TYPHIMURIUM, Strain/Indicator: TA100, Metabolic Activation: NONE, Method: STANDARD PLATE): inactive; negative
- mutagenic call (Test System: AMES SALMONELLA TYPHIMURIUM, Strain/Indicator: TA100, Metabolic Activation: S-9, Method: STANDARD PLATE): inactive; negative
- mutagenic call (Test System: AMES SALMONELLA TYPHIMURIUM, Strain/Indicator: TA102, Metabolic Activation: NONE, Method: STANDARD PLATE): inactive; negative
- mutagenic call (Test System: AMES SALMONELLA TYPHIMURIUM, Strain/Indicator: TA102, Metabolic Activation: S-9, Method: STANDARD PLATE): inactive; negative
- mutagenic call (Test System: E.COLI, Strain/Indicator: WP2 (PKM101), Metabolic Activation: NONE, Method: STANDARD PLATE): inactive; negative
- mutagenic call (Test System: E.COLI, Strain/Indicator: WP2 (PKM101), Metabolic Activation: S-9, Method: STANDARD PLATE): inactive; negative

Compound: CC(=O)Nc1cccc(O)c1
- mutagenic call (Test System: AMES SALMONELLA TYPHIMURIUM, Strain/Indicator: TA97, Metabolic Activation: HAMSTER, LIVER, S-9, AROCLOR 1254 (10 OR 30%), Method: PREINCUBATION): inactive; negative
- mutagenic call (Test System: AMES SALMONELLA TYPHIMURIUM, Strain/Indicator: TA97, Metabolic Activation: NONE, Method: PREINCUBATION): inactive; negative
- mutagenic call (Test System: AMES SALMONELLA TYPHIMURIUM, Strain/Indicator: TA97, Metabolic Activation: RAT, LIVER, S-9, AROCLOR 1254 (10 OR 30%), Method: PREINCUBATION): inactive; negative
- mutagenic call (Test System: AMES SALMONELLA TYPHIMURIUM, Strain/Indicator: TA98, Metabolic Activation: HAMSTER, LIVER, S-9, AROCLOR 1254 (10 OR 30%), Method: PREINCUBATION): inactive; negative
- mutagenic call [1]: inactive; negative
- mutagenic call (Test System: AMES SALMONELLA TYPHIMURIUM, Strain/Indicator: TA98, Metabolic Activation: RAT, LIVER, S-9, AROCLOR 1254 (10 OR 30%), Method: PREINCUBATION): inactive; negative
- mutagenic call (Test System: AMES SALMONELLA TYPHIMURIUM, Strain/Indicator: TA100, Metabolic Activation: HAMSTER, LIVER, S-9, AROCLOR 1254 (10 OR 30%), Method: PREINCUBATION): inactive; negative
- mutagenic call [2]: inactive; negative
- mutagenic call (Test System: AMES SALMONELLA TYPHIMURIUM, Strain/Indicator: TA100, Metabolic Activation: RAT, LIVER, S-9, AROCLOR 1254 (10 OR 30%), Method: PREINCUBATION): inactive; negative
- mutagenic call (Test System: AMES SALMONELLA TYPHIMURIUM, Strain/Indicator: TA1535, Metabolic Activation: HAMSTER, LIVER, S-9, AROCLOR 1254 (10 OR 30%), Method: PREINCUBATION): inactive; negative
- mutagenic call [3]: inactive; negative
- mutagenic call (Test System: AMES SALMONELLA TYPHIMURIUM, Strain/Indicator: TA1535, Metabolic Activation: RAT, LIVER, S-9, AROCLOR 1254 (10 OR 30%), Method: PREINCUBATION): inactive; negative

Compound: CC(=O)OCC(O)CO (stereo not drawn)
- mutagenic call (End Point: IN VITRO CHROMOSOMAL ABERRATIONS, Test System: CHO CELLS, Metabolic Activation: NONE): inactive; negative
- mutagenic call (End Point: IN VITRO CHROMOSOMAL ABERRATIONS, Test System: CHO CELLS, Metabolic Activation: RAT, LIVER, S-9, AROCLOR 1254): inactive; negative
- mutagenic call (Test System: AMES SALMONELLA TYPHIMURIUM, Strain/Indicator: TA98, Metabolic Activation: HAMSTER, LIVER, S-9, AROCLOR 1254, Method: PREINCUBATION): inactive; negative
- mutagenic call [1]: inactive; negative
- mutagenic call (Test System: AMES SALMONELLA TYPHIMURIUM, Strain/Indicator: TA98, Metabolic Activation: RAT, LIVER, S-9, AROCLOR 1254, Method: PREINCUBATION): inactive; negative
- mutagenic call (Test System: AMES SALMONELLA TYPHIMURIUM, Strain/Indicator: TA100, Metabolic Activation: HAMSTER, LIVER, S-9, AROCLOR 1254, Method: PREINCUBATION): inactive; negative
- mutagenic call [2]: inactive; negative
- mutagenic call (Test System: AMES SALMONELLA TYPHIMURIUM, Strain/Indicator: TA100, Metabolic Activation: RAT, LIVER, S-9, AROCLOR 1254, Method: PREINCUBATION): inactive; negative
- mutagenic call (Test System: AMES SALMONELLA TYPHIMURIUM, Strain/Indicator: TA1535, Metabolic Activation: HAMSTER, LIVER, S-9, AROCLOR 1254, Method: PREINCUBATION): active; positive
- mutagenic call [3]: active; positive
- mutagenic call (Test System: AMES SALMONELLA TYPHIMURIUM, Strain/Indicator: TA1535, Metabolic Activation: RAT, LIVER, S-9, AROCLOR 1254, Method: PREINCUBATION): active; positive
- mutagenic call (Test System: AMES SALMONELLA TYPHIMURIUM, Strain/Indicator: TA1537, Metabolic Activation: HAMSTER, LIVER, S-9, AROCLOR 1254, Method: PREINCUBATION): inactive; negative
- mutagenic call [4]: inactive; negative
- mutagenic call (Test System: AMES SALMONELLA TYPHIMURIUM, Strain/Indicator: TA1537, Metabolic Activation: RAT, LIVER, S-9, AROCLOR 1254, Method: PREINCUBATION): inactive; negative

Compound: CSC[C@H](NC(=O)C(C)(C)SC)C(=O)O
- mutagenic call [1]: inactive; negative
- mutagenic call [2]: inactive; negative
- mutagenic call [3]: inactive; negative
- mutagenic call [4]: inactive; negative
- mutagenic call (Test System: AMES SALMONELLA TYPHIMURIUM, Strain/Indicator: TA1538, Metabolic Activation: NONE, Method: PREINCUBATION): inactive; negative
- mutagenic call (Test System: E. COLI, Strain/Indicator: WP2, Metabolic Activation: NONE, Method: PREINCUBATION): inactive; negative
- mutagenic call (Test System: E. COLI, Strain/Indicator: WP2 UVRA, Metabolic Activation: NONE, Method: PREINCUBATION): inactive; negative
